Measured values from US7741327B2 (Hoffmann-La Roche Inc., priority 2008, dated 2010).

biological target: T1, Recombinant human liver GK1 (GST-GK) (Homo sapiens, UniProt P35557); experiment: In vitro glucokinase activity (G6PDH-coupled NADH assay); type: biochemical; conditions: 30° C., 5 mM D-glucose, 10% DMSO
T1 construct: made in house; host or cells: E. coli
T1 sequence (P35557 1-466 isoform P35557-2): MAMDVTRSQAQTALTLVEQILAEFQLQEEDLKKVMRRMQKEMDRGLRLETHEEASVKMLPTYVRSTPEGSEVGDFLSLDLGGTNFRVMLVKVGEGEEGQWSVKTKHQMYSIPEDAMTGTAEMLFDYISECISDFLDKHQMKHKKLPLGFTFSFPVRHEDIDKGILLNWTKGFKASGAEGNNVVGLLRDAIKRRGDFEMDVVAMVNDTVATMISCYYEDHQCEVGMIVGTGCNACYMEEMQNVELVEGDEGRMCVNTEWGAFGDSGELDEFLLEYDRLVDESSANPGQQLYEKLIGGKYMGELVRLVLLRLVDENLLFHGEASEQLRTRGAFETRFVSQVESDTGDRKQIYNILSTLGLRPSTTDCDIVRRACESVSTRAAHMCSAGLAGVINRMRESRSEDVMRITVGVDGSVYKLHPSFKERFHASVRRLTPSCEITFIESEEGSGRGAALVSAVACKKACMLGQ
Outline: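 Activation measured as the rate of OD340 rise from G6PDH-coupled NADH production, relative to 10% DMSO control, reported as SC1.5 (concentration for 50% activity increase). Conditions: 30° C, pH 7.1 Hepes, 5 mM glucose, 1 mM ATP, purified recombinant GST-human GK1, compound preincubated 10 min before enzyme addition.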

SC1.5 (concentration of activator that produced a 50% increase in the activity of GK) [µM]	SMILES
3.668	CC(C)C[C@@H](C(=O)Nc1cnccn1)N1CC(Oc2ccc(CC(C)(C)O)cc2)=CC1=O [Example 245, (S)-2-{4-[4-(2-Hydroxy-2-methyl-propyl)-phenoxy]-2-oxo-2,5-dihydro-pyrrol-1-yl}-4-methyl-pentanoic acid pyrazin-2-ylamide]
1.8	O=C(Nc1ccn(C[C@@H](O)CO)n1)C(CCC(F)(F)F)N1CC(Oc2ccccc2Cl)=CC1=O (stereo partly drawn) [Example 220, 2-[4-(2-Chloro-phenoxy)-2-oxo-2,5-dihydro-pyrrol-1-yl]-5,5,5-trifluoro-pentanoic acid [1-((R)-2,3-dihydroxy-propyl)-1H-pyrazol-3-yl]-amide]
0.034	CCOc1ccc(F)c(OC2=CC(=O)N([C@@H](CC(C)C)C(=O)Nc3ccn(C[C@@H](O)CO)n3)C2)c1F [Example 117, (S)-2-[4-(3-Ethoxy-2,6-difluoro-phenoxy)-2-oxo-2,5-dihydro-pyrrol-1-yl]-4-methyl-pentanoic acid [1-((R)-2,3-dihydroxy-propyl)-1H-pyrazol-3-yl]-amide]
7.56	Cc1nc2c(OC3=CC(=O)N([C@@H](CC(C)C)C(=O)Nc4ccn(CC(C)(C)O)n4)C3)cccc2o1 [Example 243, (S)-4-Methyl-2-[4-(2-methyl-benzooxazol-4-yloxy)-2-oxo-2,5-dihydro-pyrrol-1-yl]-pentanoic acid [1-(2-hydroxy-2-methyl-propyl)-1H-pyrazol-3-yl]-amide]
6.139	COCC[C@@H](C(=O)Nc1ccn(C[C@@H](O)CO)n1)N1CC(Oc2ccccc2Cl)=CC1=O [Example 230, (S)-2-[4-(2-Chloro-phenoxy)-2-oxo-2,5-dihydro-pyrrol-1-yl]-N-[1-((R)-2,3-dihydroxy-propyl)-1H-pyrazol-3-yl]-4-methoxy-butyramide]
~30	CC(C)C[C@@H](C(=O)Nc1nc(CCC(F)(F)F)ns1)N1CC(Oc2ccccc2Cl)=CC1=O [Example 106, (S)-2-[4-(2-Chloro-phenoxy)-2-oxo-2,5-dihydro-pyrrol-1-yl]-4-methyl-pentanoic acid [3-(3,3,3-trifluoro-propyl)-[1,2,4]thiadiazol-5-yl]-amide]
2.013	CC(C)C[C@@H](C(=O)Nc1ccn(C[C@@H]2COC(C)(C)O2)n1)N1CC(Oc2ccccc2Br)=CC1=O [Example 136, (S)-2-[4-(2-Bromo-phenoxy)-2-oxo-2,5-dihydro-pyrrol-1-yl]-4-methyl-pentanoic acid [1-((R)-2,2-dimethyl-[1,3]dioxolan-4-yl-methyl)-1H-pyrazol-3-yl]-amide]
0.4	CC(C)C[C@@H](C(=O)Nc1ccn(C)n1)N1CC(Oc2cccc(Cl)c2Cl)=CC1=O.Cl [Example 78, (S)-2-[4-(2,3-Dichloro-phenoxy)-2-oxo-2,5-dihydro-pyrrol-1-yl]-4-methyl-pentanoic acid (1-methyl-1H-pyrazol-3-yl)-amide Hydrochloride]
5.931	CC(C)(O)Cn1ccc(NC(=O)[C@H](CC2CCCCC2)N2CC(Nc3ccc(Cl)c(Cl)c3)=CC2=O)n1 [Example 231, (S)-3-Cyclohexyl-2-[4-(3,4-dichloro-phenylamino)-2-oxo-2,5-dihydro-pyrrol-1-yl]-N-[1-(2-hydroxy-2-methyl-propyl)-1H-pyrazol-3-yl]-propionamide]
6.54	COC1=CC(=O)N([C@@H](CC2CCCC2)C(=O)Nc2cnccn2)C1 [Example 9, (S)-3-Cyclopentyl-2-(4-methoxy-2-oxo-2,5-dihydro-pyrrol-1-yl)-N-pyrazin-2-yl-propionamide]

same assay, conditions: at 30 μM test compound

fold act. @ 30 μM [fold]	SMILES
1.5	CC(C)C[C@@H](C(=O)Nc1nc(CCC(F)(F)F)ns1)N1CC(Oc2ccccc2Cl)=CC1=O [Example 106, (S)-2-[4-(2-Chloro-phenoxy)-2-oxo-2,5-dihydro-pyrrol-1-yl]-4-methyl-pentanoic acid [3-(3,3,3-trifluoro-propyl)-[1,2,4]thiadiazol-5-yl]-amide]
